{"source": "patent US12465613B2", "about": "“Pharmaceutical composition for use in the prophylactic and/or therapeutic treatment of L-DOPA-induced dyskinesia” (UNIVERSIDADE DE SANTIAGO DE COMPOSTELA, priority 2019, dated 2025)", "format_in_all_cases": "in vivo, rats of the Sprague-Dawley strain", "key": {"[1]": {"test_system": "ROCK", "assay": "ROCK expression and activity in striatum and substantia nigra of dyskinetic animals (Western blot, real-time PCR; Example 1)"}, "[2]": {"test_system": "RhoA", "assay": "RhoA expression in striatum and substantia nigra of dyskinetic animals (Western blot, real-time PCR; Example 1)"}, "[3]": {"test_system": "rats injected with 6-OHDA, dyskinesias induced by L-DOPA", "assay": "Abnormal involuntary movements (AIMs) when fasudil is co-administered from before and during chronic L-DOPA treatment (Example 2)"}, "[4]": {"test_system": "rats with unilateral lesion with 6-OHDA", "assay": "Rotational behavior induced by L-DOPA (Example 3)", "conditions": "different doses of fasudil (10, 30, 40 mg/kg)"}, "[5]": {"test_system": "rats with unilateral lesion with 6-OHDA, established dyskinesias induced by L-DOPA", "assay": "AIMs in animals with already established dyskinesias (L-DOPA 3 weeks, then L-DOPA and fasudil; Example 4)"}, "[6]": {"conditions": "L-DOPA 6 mg/kg and 12 mg/kg, normalized to 6-OHDA animals treated with saline, p<0.05"}, "[7]": {"conditions": "daily L-DOPA 6 or 12 mg/kg, 3-4 weeks, increase greater with the higher dose"}, "[8]": {"conditions": "fasudil 10 mg/kg/day i.p., L-DOPA 6 mg/kg, 3 weeks, relative to L-DOPA only"}, "[9]": {"conditions": "fasudil 30 mg/kg i.p., chronic L-DOPA"}}, "note": "Entries after “also recorded” stand apart in the source; their conditions may differ.", "data": [{"smiles": "N[C@@H](Cc1ccc(O)c(O)c1)C(=O)O", "note": "[L-DOPA]", "values": [{"measurement": "ROCK activity in the substantia nigra", "setting": "[1]; L-DOPA 6 mg/kg and 12 mg/kg, normalized to 6-OHDA animals treated with saline", "value": "significant increase"}, {"measurement": "ROCK protein expression in the substantia nigra", "setting": "[1]; [6]", "value": "significant increase"}, {"measurement": "ROCK protein expression in the striatum", "setting": "[1]; L-DOPA 6 and 12 mg/kg", "value": "only significant with the high dose"}, {"measurement": "levels of the ROCK protein in dyskinetic animals", "setting": "[1]; [7]", "value": "significant increase"}, {"measurement": "RhoA protein expression in the substantia nigra", "setting": "[2]; [6]", "value": "significant increase"}, {"measurement": "RhoA protein expression in the striatum", "setting": "[2]; L-DOPA 6 and 12 mg/kg", "value": "only significant with the high dose"}, {"measurement": "levels of the RhoA protein in dyskinetic animals", "setting": "[2]; [7]", "value": "significant increase"}]}, {"smiles": "O=S(=O)(c1cccc2cnccc12)N1CCCNCC1", "note": "[fasudil]", "values": [{"measurement": "abnormal involuntary movements (AIMs), total score and separate components (extremity, axial, orolingual)", "setting": "[3]; FIG. 2, fasudil 10 mg/kg and 30-40 mg, chronic L-DOPA 23 and 32 days, p<0.05", "value": "statistically significant reduction"}, {"measurement": "reduction in dyskinesia in conditions of severe dyskinesia", "setting": "[3]; L-DOPA dose increased to 24 mg/kg at the end of the treatment, fasudil dose not stated", "value": "approximately 50%"}, {"measurement": "axial reduction in dyskinesias", "setting": "[3]; [8]", "value": "~35", "unit": "%"}, {"measurement": "orolingual reduction in dyskinesias", "setting": "[3]; [8]", "value": "~30", "unit": "%"}, {"measurement": "reduction in dyskinesias in the extremities", "setting": "[3]; fasudil 10 mg/kg/day i.p., from 5 days before and 30 min before each L-DOPA 6 mg/kg, 3 weeks, relative to L-DOPA only", "value": "~25", "unit": "%"}, {"measurement": "axial reduction in dyskinesias", "setting": "[3]; [9]", "value": 60, "unit": "%"}, {"measurement": "extremity reduction in dyskinesias", "setting": "[3]; [9]", "value": 60, "unit": "%"}, {"measurement": "orolingual reduction in dyskinesias", "setting": "[3]; [9]", "value": 70, "unit": "%"}, {"measurement": "reduction in dyskinesia", "setting": "[3]; fasudil 40 mg/kg i.p., chronic L-DOPA", "value": 70, "unit": "%"}, {"measurement": "rotations induced by L-DOPA (rotational behavior)", "setting": "[4]", "value": "unaffected; also recorded: no differences were observed"}, {"measurement": "effect on established dyskinetic movements", "setting": "[5]; FIG. 4B, fasudil 30 and 40 mg/kg, even with L-DOPA 24 mg/kg, p<0.05", "value": "significant reduction"}, {"measurement": "reduction in established dyskinesias, severe dyskinesia", "setting": "[5]; L-DOPA increased to 24 mg/kg, maintained up to the end of the treatment", "value": "approximately 50%"}, {"measurement": "effect on established dyskinetic movements", "setting": "[5]; fasudil 10 mg/kg/day, up to 7 days of treatment, after 3 weeks of L-DOPA", "value": "did not have any effect; also recorded: no improvement"}, {"measurement": "day of treatment from which the reduction in established dyskinesias was seen", "setting": "[5]; fasudil 40 mg/kg/day", "value": "third"}, {"measurement": "reduction in established dyskinesias", "setting": "[5]; fasudil 40 mg/kg/day, after 3 weeks of L-DOPA", "value": "about 45%"}, {"measurement": "dyskinesias reduced to (already dyskinetic animals)", "setting": "[5]; fasudil 40 mg/kg, animals treated with L-DOPA for 3-4 weeks, summary statement", "value": "~50", "unit": "%"}]}]}
